Molecular target: T1, TREK-1 (Homo sapiens, UniProt O95069)
T1 sequence (O95069 1-426): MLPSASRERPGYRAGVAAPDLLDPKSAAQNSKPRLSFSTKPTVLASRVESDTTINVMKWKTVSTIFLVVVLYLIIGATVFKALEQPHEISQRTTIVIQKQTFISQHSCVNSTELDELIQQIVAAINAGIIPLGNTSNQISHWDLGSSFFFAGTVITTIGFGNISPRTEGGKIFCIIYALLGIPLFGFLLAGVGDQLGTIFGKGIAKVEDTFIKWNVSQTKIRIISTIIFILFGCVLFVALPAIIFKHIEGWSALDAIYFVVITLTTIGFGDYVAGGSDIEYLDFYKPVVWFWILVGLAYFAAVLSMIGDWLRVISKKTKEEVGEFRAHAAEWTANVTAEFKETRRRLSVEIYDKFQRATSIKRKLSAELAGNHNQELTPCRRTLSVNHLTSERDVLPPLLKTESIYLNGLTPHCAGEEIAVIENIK
Assay: Tl+ flux fluorescence
Format: cell-based
Settings: inhibitor; 1.8 µM, 10 min pretreatment; pH 7.3

CCCCC[C@H](O)/C=C/[C@H]1CC[C@H](O)[C@@H]1C/C=C\CCCC(=O)O [11-deoxy prostaglandin F2α]
Tl+ flux fluorescence (Thallos), T-REx-HEK293: we observed that 11-deoxy prostaglandin F2α inhibited TREK-1 channels

Source: paper PMC5901755 (ACS chemical neuroscience, 2016)
